# Structures can show the parent of a compound that is named as a salt.
# Columns and labels:
# [1] = molecular target: T1, S1P1 (PathHunter CHO-K1 EDG1 β-Arrestin cell line) (Homo sapiens, UniProt P21453); assay: S1P-1 β-Arrestin recruitment assay; format: cell-based; conditions: CHO-K1 EDG1 β-Arrestin cells, chemi-luminescence
# T1 construct: host or cells: PathHunter CHO-K1 EDG1 β-Arrestin cell line
# Procedure, shortened: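 CHO-K1 cells expressing S1P1 and β-arrestin 2 fused to complementing β-galactosidase fragments, at 1×10^4 cells/well in pH 7.4 buffer with 0.1% BSA. Compound exposure 90 min at 37 °C then 15 min room temperature; chemiluminescent substrate added for 60 min before luminescence read.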
# [2] = molecular target: T2, S1P1 receptor (S1P1 expressing RH7777 membranes) (Homo sapiens, UniProt P21453); assay: S1P1 GTPγS assay; format: biochemical; conditions: tested in one of the above S1P1 assays (two GTPγS formats)
# T2 construct: expressed in transfected cells; host or cells: RH7777 cells (membranes)
# Procedure, shortened: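 Membranes from RH7777 cells expressing human S1P1 (1.5 μg/well) precoupled 30 min on ice to WGA SPA beads in 20 mM HEPES pH 7.4, 10 mM MgCl2, 100 mM NaCl, with 10 μM GDP and 90 μg/ml saponin. [35S]-GTPγS 0.5 nM final added with compound; SPA signal read immediately.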
# T2 sequence (P21453 whole entry): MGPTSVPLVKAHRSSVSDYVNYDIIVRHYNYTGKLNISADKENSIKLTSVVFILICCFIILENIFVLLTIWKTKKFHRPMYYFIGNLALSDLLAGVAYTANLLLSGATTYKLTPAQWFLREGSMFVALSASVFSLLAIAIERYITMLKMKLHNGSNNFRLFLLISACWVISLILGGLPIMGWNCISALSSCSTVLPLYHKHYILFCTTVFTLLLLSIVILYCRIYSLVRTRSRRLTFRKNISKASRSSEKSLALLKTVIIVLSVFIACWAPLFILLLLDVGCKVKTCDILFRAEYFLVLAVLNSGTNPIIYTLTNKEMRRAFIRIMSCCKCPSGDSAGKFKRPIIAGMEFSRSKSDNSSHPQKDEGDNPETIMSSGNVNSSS
# T1 sequence (P21453 whole entry): as above
# T1 sequence (P32121 whole entry partner): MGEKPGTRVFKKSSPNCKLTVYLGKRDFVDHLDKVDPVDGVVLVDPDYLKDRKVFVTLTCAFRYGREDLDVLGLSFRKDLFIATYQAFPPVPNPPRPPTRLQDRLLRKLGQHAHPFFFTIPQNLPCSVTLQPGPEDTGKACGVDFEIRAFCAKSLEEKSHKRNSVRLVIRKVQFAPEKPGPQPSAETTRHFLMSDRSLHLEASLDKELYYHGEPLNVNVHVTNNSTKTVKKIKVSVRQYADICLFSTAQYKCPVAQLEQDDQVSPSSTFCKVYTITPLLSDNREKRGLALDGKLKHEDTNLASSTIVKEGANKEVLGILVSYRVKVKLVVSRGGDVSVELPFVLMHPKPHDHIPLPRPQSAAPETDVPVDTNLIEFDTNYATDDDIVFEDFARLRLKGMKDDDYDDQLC
SMILES,EC50 [1],EC50 [2]
"Cc1c(-c2noc(-c3ccc(OC(C)C)c(C#N)c3)n2)ccc2c1CCN(CC(=O)N[C@@H](C)CO)C2 [Example 119, 2-[6-(5-{3-cyano-4-[(1-methylethyl)oxy]phenyl}-1,2,4-oxadiazol-3-yl)-5-methyl-3,4-dihydro-2(1H)-isoquinolinyl]-N-[(1S)-2-hydroxy-1-methylethyl]acetamide hydrochloride]",≤ 10 nM,≤ 10 nM
"Cc1c(-c2noc(-c3ccc(OC(C)C)c(C#N)c3)n2)ccc2c1CCN(CC(=O)NCCO)C2 [Example 122, 2-[6-(5-{3-cyano-4-[(1-methylethyl)oxy]phenyl}-1,2,4-oxadiazol-3-yl)-5-methyl-3,4-dihydro-2(1H)-isoquinolinyl]-N-(2-hydroxyethyl)acetamide hydrochloride]",≤ 10 nM,≤ 10 nM
"Cc1c(-c2noc(-c3ccc(OC(C)C)c(C#N)c3)n2)ccc2c1CCN(CC(=O)N1CC(O)C1)C2 [Example 123, 5-(3-{2-[2-(3-hydroxy-1-azetidinyl)-2-oxoethyl]-5-methyl-1,2,3,4-tetrahydro-6-isoquinolinyl}-1,2,4-oxadiazol-5-yl)-2-[(1-methylethyl)oxy]benzonitrile hydrochloride]",≤ 10 nM,≤ 100 nM
"Cc1c(-c2noc(-c3ccc(OC(C)C)c(C#N)c3)n2)ccc2c1CCN(CC(=O)NC[C@H](O)CO)C2 [Example 124, 2-[6-(5-{3-cyano-4-[(1-methylethyl)oxy]phenyl}-1,2,4-oxadiazol-3-yl)-5-methyl-3,4-dihydro-2(1H)-isoquinolinyl]-N-[(2S)-2,3-dihydroxypropyl]acetamide hydrochloride]",≤ 10 nM,≤ 100 nM
"Cc1c(-c2noc(-c3ccc(OC(C)C)c(C#N)c3)n2)ccc2c1CCN(CC(=O)NC(CO)CO)C2 [Example 125, 2-[6-(5-{3-cyano-4-[(1-methylethyl)oxy]phenyl}-1,2,4-oxadiazol-3-yl)-5-methyl-3,4-dihydro-2(1H)-isoquinolinyl]-N-[2-hydroxy-1-(hydroxymethyl)ethyl]acetamide hydrochloride]",≤ 10 nM,≤ 100 nM
"Cc1c(-c2noc(-c3ccc(OC(C)C)c(C#N)c3)n2)ccc2c1CCN(C(=O)CNC[C@@H](C)O)C2 [Example 129, 5-[3-(2-{N-[(2R)-2-hydroxypropyl]glycyl}-5-methyl-1,2,3,4-tetrahydro-6-isoquinolinyl)-1,2,4-oxadiazol-5-yl]-2-[(1-methylethyl)oxy]benzonitrile hydrochloride]",≤ 10 nM,> 10000 nM
"Cc1c(-c2noc(-c3cnc(OC(C)C)c(C#N)c3)n2)ccc2c1CCN(C[C@H](O)CO)C2 [Example 132, 5-(3-{2-[(2S)-2,3-dihydroxypropyl]-5-methyl-1,2,3,4-tetrahydro-6-isoquinolinyl}-1,2,4-oxadiazol-5-yl)-2-[(1-methylethyl)oxy]-3-pyridinecarbonitrile]",≤ 100 nM,≤ 1000 nM
Cc1c(-c2noc(-c3cnc(OC(C)C)c(C#N)c3)n2)ccc2c1CCN(C[C@@H](O)CO)C2 [Example 133],≤ 100 nM,≤ 100 nM
"Cc1c(-c2noc(-c3cnc(OC(C)C)c(C#N)c3)n2)ccc2c1CCN(C(CO)CO)C2 [Example 134, 5-(3-{2-[2-hydroxy-1-(hydroxymethyl)ethyl]-5-methyl-1,2,3,4-tetrahydro-6-isoquinolinyl}-1,2,4-oxadiazol-5-yl)-2-[(1-methylethyl)oxy]-3-pyridinecarbonitrile hydrochloride]",≤ 10 nM,≤ 100 nM
"N#Cc1cc(-c2nc(-c3ccc4c(c3)CCN(C[C@H](O)CO)CC4)no2)ccc1OCC(F)(F)F [Example 135, 5-(3-{3-[(2S)-2,3-dihydroxypropyl]-2,3,4,5-tetrahydro-1H-3-benzazepin-7-yl}-1,2,4-oxadiazol-5-yl)-2-[(2,2,2-trifluoroethyl)oxy]benzonitrile]",≤ 100 nM,≤ 100 nM
"Cc1c(-c2noc(-c3ccc(OC(C)C)c(C#N)c3)n2)ccc2c1CCN(CC(=O)NCCO)CC2 [Example 146, 2-[7-(5-{3-cyano-4-[(1-methylethyl)oxy]phenyl}-1,2,4-oxadiazol-3-yl)-6-methyl-1,2,4,5-tetrahydro-3H-3-benzazepin-3-yl]-N-(2-hydroxyethyl)acetamide]",≤ 10 nM,≤ 100 nM
"Cc1c(-c2noc(-c3ccc(OC(C)C)c(C#N)c3)n2)ccc2c1CCN(CC(=O)NC[C@@H](C)O)CC2 [Example 147, 2-[7-(5-{3-cyano-4-[(1-methylethyl)oxy]phenyl}-1,2,4-oxadiazol-3-yl)-6-methyl-1,2,4,5-tetrahydro-3H-3-benzazepin-3-yl]-N-[(2R)-2-hydroxypropyl]acetamide]",≤ 10 nM,≤ 100 nM
"Cc1c(-c2noc(-c3ccc(OC(C)C)c(C#N)c3)n2)ccc2c1CCN(CC(=O)NC[C@H](C)O)CC2 [Example 148, 2-[7-(5-{3-cyano-4-[(1-methylethyl)oxy]phenyl}-1,2,4-oxadiazol-3-yl)-6-methyl-1,2,4,5-tetrahydro-3H-3-benzazepin-3-yl]-N-[(2S)-2-hydroxypropyl]acetamide]",≤ 10 nM,≤ 100 nM
"Cc1c(-c2noc(-c3ccc(OC(C)C)c(C#N)c3)n2)ccc2c1CCN(C[C@H](O)CO)CC2 [Example 153, 5-(3-{3-[(2S)-2,3-dihydroxypropyl]-6-methyl-2,3,4,5-tetrahydro-1H-3-benzazepin-7-yl}-1,2,4-oxadiazol-5-yl)-2-[(1-methylethyl)oxy]benzonitrile hydrochloride]",≤ 100 nM,≤ 100 nM
"Cc1c(-c2noc(-c3ccc(OC(C)C)c(C#N)c3)n2)ccc2c1CCN(C[C@@H](O)CO)CC2 [Example 154, 5-(3-{3-[(2R)-2,3-dihydroxypropyl]-6-methyl-2,3,4,5-tetrahydro-1H-3-benzazepin-7-yl}-1,2,4-oxadiazol-5-yl)-2-[(1-methylethyl)oxy]benzonitrile hydrochloride]",≤ 100 nM,≤ 100 nM
"Cc1c(-c2noc(-c3ccc(OC(C)C)c(C#N)c3)n2)ccc2c1CCN(C(=O)CNCCO)CC2 [Example 155, 5-(3-{3-[N-(2-hydroxyethyl)glycyl]-6-methyl-2,3,4,5-tetrahydro-1H-3-benzazepin-7-yl}-1,2,4-oxadiazol-5-yl)-2-[(1-methylethyl)oxy]benzonitrile]",≤ 10 nM,1 nM
"Cc1c(-c2noc(-c3ccc(OC(C)C)c(C#N)c3)n2)ccc2c1CCN(C(CO)CO)CC2 [Example 156, 5-(3-{3-[2-hydroxy-1-(hydroxymethyl)ethyl]-6-methyl-2,3,4,5-tetrahydro-1H-3-benzazepin-7-yl}-1,2,4-oxadiazol-5-yl)-2-[(1-methylethyl)oxy]benzonitrile hydrochloride]",≤ 10 nM,≤ 100 nM
"Cc1c(-c2noc(-c3ccc(OC(C)C)c(C#N)c3)n2)ccc2c1CCN(CC(=O)N[C@@H](C)CO)CC2 [Example 158, 2-[7-(5-{3-cyano-4-[(1-methylethyl)oxy]phenyl}-1,2,4-oxadiazol-3-yl)-6-methyl-1,2,4,5-tetrahydro-3H-3-benzazepin-3-yl]-N-[(1S)-2-hydroxy-1-methylethyl]acetamide]",≤ 10 nM,≤ 100 nM
Cc1c(-c2noc(-c3ccc(OC(C)C)c(C#N)c3)n2)ccc2c1CCN(CC(=O)N[C@H](C)CO)CC2 [Example 159],≤ 10 nM,≤ 100 nM
"Cc1c(-c2noc(-c3ccc(OC(C)C)c(C#N)c3)n2)ccc2c1CCN(CC(=O)NC(CO)CO)CC2 [Example 186, 2-[7-(5-{3-cyano-4-[(1-methylethyl)oxy]phenyl}-1,2,4-oxadiazol-3-yl)-6-methyl-1,2,4,5-tetrahydro-3H-3-benzazepin-3-yl]-N-[2-hydroxy-1-(hydroxymethyl)ethyl]acetamide]",≤ 10 nM,≤ 100 nM
"Cc1c(-c2noc(-c3ccc(OC(C)C)c(C#N)c3)n2)ccc2c1CCN(C(=O)CNCC(O)CO)CC2 (stereo not drawn) [Example 187, 5-(3-{3-[N-(2,3-dihydroxypropyl)glycyl]-6-methyl-2,3,4,5-tetrahydro-1H-3-benzazepin-7-yl}-1,2,4-oxadiazol-5-yl)-2-[(1-methylethyl)oxy]benzonitrile]",≤ 10 nM,≤ 100 nM
"Cc1c(-c2noc(-c3ccc(OC(C)C)c(C#N)c3)n2)ccc2c1CCN(C(=O)CNC(CO)CO)CC2 [Example 189, 5-[3-(3-{N-[2-hydroxy-1-(hydroxymethyl)ethyl]glycyl}-6-methyl-2,3,4,5-tetrahydro-1H-3-benzazepin-7-yl)-1,2,4-oxadiazol-5-yl]-2-[(1-methylethyl)oxy]benzonitrile]",≤ 10 nM,≤ 100 nM
"CC(C)Oc1ccc(-c2nc(-c3ccc4c(c3)CCN(CC(=O)NC[C@H](O)CO)CC4)no2)cc1C#N [Example 194, 2-[7-(5-{3-cyano-4-[(1-methylethyl)oxy]phenyl}-1,2,4-oxadiazol-3-yl)-1,2,4,5-tetrahydro-3H-3-benzazepin-3-yl]-N-[(2S)-2,3-dihydroxypropyl]acetamide hydrochloride]",≤ 10 nM,≤ 100 nM
"CC(C)Oc1ccc(-c2nc(-c3ccc4c(c3)CCN(CC(=O)NC(CO)CO)CC4)no2)cc1C#N [Example 195, 2-[7-(5-{3-cyano-4-[(1-methylethyl)oxy]phenyl}-1,2,4-oxadiazol-3-yl)-1,2,4,5-tetrahydro-3H-3-benzazepin-3-yl]-N-[2-hydroxy-1-(hydroxymethyl)ethyl]acetamide hydrochloride]",≤ 10 nM,≤ 100 nM
